# In US12234205B1, “Sulfonylhydrazide derivatives as anticancer agents” (KING SAUD UNIVERSITY, priority 2024, dated 2025):
# What was measured:
# A549 NSCLC cell line = assay: Inhibition of A549 NSCLC cell line (sulforhodamine B assay, 72 h); type: cell-based; settings: Homo sapiens, SRB assay, 72 hours exposure
# Protocol: (§1) IC50 is the concentration at which 50% of the cells were inhibited after treatment with a target compound. SEM is the standard error of means.
# Inhibition of A549 NSCLS (Non-Small Cells Lung Cancer) Cell Line
# A549 cell lines were obtained from the National Cancer Institute (Cairo, Egypt) and maintained in Roswell Park Memorial Institute medium (RPMI1640) (Invitrogen, Carlsbad, CA, USA) supplemented with […] of streptomycin, 100 units/mL of penicillin and 10% of heat-inactivated fetal bovine serum (Invitrogen) in a humidified, 5% (v/v) CO2 atmosphere at 37° C. The sulforhodamine B (SRB) assays were performed according to Skehan et al 20, 21. Briefly, exponentially growing cells were trypsinized, counted and seeded at the appropriate densities (5000 cells/100 μL/well) into 96-well microtiter plates. Cells were incubated in a humidified atmosphere at 37° C. for 24 h. Then, the cells were exposed to different compounds at the desired concentrations, (0.01, 0.03, 0.1, 0.3, 1, 3, 10, 30 and 100 μM) or to 1% dimethyl sulfoxide (DMSO) for 72 hours. At the end of the treatment period, the media were removed, and the cells were fixed with 10% trichloroacetic acid at 4° C. for 1 h. The cells then were washed with tap water four times and incubated with SRB 0.4% for 30 min. Excess dye was removed by washing repeatedly with 1% (vol/vol) acetic acid. The protein-bound dye was dissolved in 10 mM Tris base solution for OD determination at 510 nm using a SpectraMax plus Microplate Reader (Molecular Devices, CA). Cell viability was expressed relative to the untreated control cells. Statistical analyses were performed using legally licensed GraphPad Prism™ and Instat™ software (GraphPad Inc., La Jolla, CA, USA).
# hFAAH = molecular target: T1, hFAAH (Homo sapiens, UniProt O00519); assay: Inhibition of FAAH activity (Cayman FAAH inhibitor screening assay kit, AMC-arachidonoyl amide hydrolysis, fluorescence); type: biochemical; settings: 30 min preincubation; for inhibition at 10 µM: 10 μM compound, 37° C., triplicate; for IC50: only compounds with more than 50% inhibition at 10 μM
# T1 construct: purchased Cayman Chemicals 10005196
# T1 sequence (O00519 1-579): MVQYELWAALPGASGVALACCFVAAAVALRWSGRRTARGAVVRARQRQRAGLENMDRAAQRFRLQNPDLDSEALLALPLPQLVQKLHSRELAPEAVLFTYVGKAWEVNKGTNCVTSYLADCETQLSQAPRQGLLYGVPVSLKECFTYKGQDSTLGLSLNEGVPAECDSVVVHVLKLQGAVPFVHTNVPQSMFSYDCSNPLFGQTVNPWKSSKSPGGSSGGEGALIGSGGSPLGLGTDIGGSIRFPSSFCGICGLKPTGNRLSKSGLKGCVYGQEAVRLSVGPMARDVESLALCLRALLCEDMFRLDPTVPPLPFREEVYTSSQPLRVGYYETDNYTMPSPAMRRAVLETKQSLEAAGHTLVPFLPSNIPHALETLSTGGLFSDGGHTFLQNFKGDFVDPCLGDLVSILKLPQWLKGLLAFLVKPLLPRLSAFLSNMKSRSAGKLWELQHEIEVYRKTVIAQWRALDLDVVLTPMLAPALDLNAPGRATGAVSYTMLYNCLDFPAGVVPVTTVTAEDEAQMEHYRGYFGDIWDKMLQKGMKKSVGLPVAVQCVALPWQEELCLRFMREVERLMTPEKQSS
# Protocol: Inhibition of FAAH Activity
# Assay was performed using kits (#10005196) purchased from Cayman Chemicals (Anne Arbor, MI, USA). Ibuprofen was acquired as a generous gift from Tabuk Pharmaceuticals (Tabuk, SA). Doxorubicin was purchased from Sigma (St. Luis, MI, USA). Assay was performed using the FAAH inhibitor screening assay kit from Cayman Chemicals according to the manufacturer's protocol. Release of the fluorescent product, 7-amino-4-methylcoumarin (AMC), from the hydrolysis of AMC-arachidonoyl amide, mediated by FAAH at 37° C., was recorded using a plate reader with an excitation filter of 340-360 nm and an emission filter of 450-465 nm. Inhibitors were preincubated for 30 min at indicated concentrations with the enzyme prior to the addition of substrate to initiate the reaction. Change in fluorescence with time was taken as enzyme activity and the extent of inhibition was calculated from the initial rates. Final DMSO concentration was kept at 2% (v/v) in the assay. Each concentration was repeated three times (Triplicate) to conform to statistical accuracy. Percentage of inhibition at 10 μM was measured for all compounds. Compounds which were able to inhibit the enzyme activity more than 50% at 10 μM were considered eligible for IC50 calculations. For IC50, the inhibition assay was performed at 1.0, 0.1, 0.01, 0.001 and 0.0001 μM concentration of compound under assay. The hFAAH inhibition was calculated as compared to activity observed with vehicle. IC50 values were calculated using Prism v.7.02 for each column separately (singlet concentration). The compound's IC50 was calculated using InStat v.3 software (GraphPad Software, San Diego, CA) which was also used for calculation of standard error of means (SEM). Referring to FIG. 1, inhibition of hFAAH by compound 10 is shown.
# as §1
SMILES,IC50 (A549 NSCLC cell line) [µM],inhibition at 10 µM (hFAAH) [%],IC50 (hFAAH) [µM]
"CC(C)Cc1ccc(C(C)C(=O)NNS(=O)(=O)C(Br)c2ccccc2)cc1 (stereo not drawn) [Compound 6, 1-Bromo-N′-(2-(4-isobutylphenyl)propanoyl)-1-phenylmethane sulfonohydrazide]",> 100,20.6,
"CC(C)Cc1ccc(C(C)C(=O)NNS(=O)(=O)c2cccc(C(F)(F)F)c2)cc1 (stereo not drawn) [Compound 7, N′-(2-(4-isobutylphenyl)propanoyl)-3-(trifluoromethyl) benzene sulfonohydrazide]",> 100,36.1,
"CC(C)Cc1ccc(C(C)C(=O)NNS(=O)(=O)c2ccc(Br)cc2)cc1 (stereo not drawn) [Compound 13, 4-Bromo-N′-(2-(4-isobutylphenyl)propanoyl)benzenesulfonohydrazide]",> 100,48.7,
"COc1ccc(S(=O)(=O)NNC(=O)C(C)c2ccc(CC(C)C)cc2)cc1OC (stereo not drawn) [Compound 14, N′-(2-(4-isobutylphenyl)propanoyl)-3,4-dimethoxybenzene sulfonohydrazide]",> 100,23.8,
"CC(C)Cc1ccc(C(C)C(=O)NNS(=O)(=O)c2cccs2)cc1 (stereo not drawn) [Compound 15, N′-(2-(4-isobutylphenyl)propanoyl)thiophene-2-sulfonohydrazide]",> 100,86.5,0.672
"CC(C)Cc1ccc(C(C)C(=O)NNS(=O)(=O)c2ccc(Br)s2)cc1 (stereo not drawn) [Compound 16, 5-Bromo-N′-(2-(4-isobutylphenyl)propanoyl) thiophene-2-sulfonohydrazide]",> 100,28.4,
"Cc1ccc(S(=O)(=O)NNC(=O)C(C)c2ccc(CC(C)C)cc2)s1 (stereo not drawn) [Compound 17, N′-(2-(4-isobutylphenyl)propanoyl)-5-methylthiophene-2-sulfonohydrazide]",> 100,7.44,
"CC(C)Cc1ccc(C(C)C(=O)NNS(=O)(=O)c2cccnc2)cc1 (stereo not drawn) [Compound 18, N′-(2-(4-isobutylphenyl)propanoyl)pyridine-3-sulfonohydrazide]",> 100,58.6,4.01
"CC(C)Cc1ccc(C(C)C(=O)NNS(=O)(=O)c2ccc(C(F)(F)F)nc2)cc1 (stereo not drawn) [Compound 19, N′-(2-(4-isobutylphenyl)propanoyl)-6-(trifluoromethyl)pyridine-3sulfonohydrazide]",> 100,40.5,
"CC(C)Cc1ccc(C(C)C(=O)NNS(=O)(=O)Cc2ccccc2)cc1 (stereo not drawn) [Compound 20, N′-(2-(4-isobutylphenyl)propanoyl)-1-phenylmethanesulfonohydrazide]",> 100,44.2,
"CC(C)Cc1ccc(C(C)C(=O)O)cc1 (stereo not drawn) [Ibuprofen, reference compound]",,10,

# Results, then the molecule that gave them:
IC50 (A549 NSCLC cell line) [µM],inhibition at 10 µM (hFAAH) [%],IC50 (hFAAH) [µM],SMILES
> 100,33.6,,"CC(=O)c1ccc(S(=O)(=O)NNC(=O)C(C)c2ccc(CC(C)C)cc2)cc1 (stereo not drawn) [Compound 1, 4-acetyl-N′-(2-(4-isobutylphenyl)propanoyl)benzenesulfonohydrazide]"
> 100,63.5,1.46,"Cc1ccc(S(=O)(=O)NNC(=O)C(C)c2ccc(CC(C)C)cc2)cc1 (stereo not drawn) [Compound 2, N′-(2-(4-isobutylphenyl)propanoyl)-4-methylbenzene sulfonohydrazide]"
55.6,45.5,,"CC(C)Cc1ccc(C(C)C(=O)NNS(=O)(=O)c2ccccc2[N+](=O)[O-])cc1 (stereo not drawn) [Compound 3, N′-(2-(4-isobutylphenyl)propanoyl)-2-nitrobenzenesulfonohydrazide]"
53,87.8,0.179,"CC(C)Cc1ccc(C(C)C(=O)NNS(=O)(=O)c2ccc3ccccc3c2)cc1 (stereo not drawn) [Compound 4, N′-(2-(4-isobutylphenyl)propanoyl)naphthalene-2-sulfonohydrazide]"
73,8.85,,"CC(C)Cc1ccc(C(C)C(=O)NNS(=O)(=O)c2c(C(C)C)cc(C(C)C)cc2C(C)C)cc1 (stereo not drawn) [Compound 5, N′-(2-(4-isobutylphenyl)propanoyl)-2,4, 6 triisopropyl benzene sulfonohydrazide]"
40.1,74,1.2,"CC(C)Cc1ccc(C(C)C(=O)NNS(=O)(=O)c2ccc(C(F)(F)F)cc2)cc1 (stereo not drawn) [Compound 8, N′-(2-(4-isobutylphenyl)propanoyl)-4-(trifluoromethyl) benzene sulfonohydrazide]"
46.4,99.9,0.144,"CC(C)Cc1ccc(C(C)C(=O)NNS(=O)(=O)c2ccccc2)cc1 (stereo not drawn) [Compound 9, N′-(2-(4-isobutylphenyl)propanoyl) benzenesulfonohydrazide]"
0.291,98.1,0.0056,"CC(C)Cc1ccc(C(C)C(=O)NNS(=O)(=O)c2ccc(-c3ccccc3)cc2)cc1 (stereo not drawn) [Compound 10, N′-(2-(4-isobutylphenyl)propanoyl)-[1, 1′-biphenyl]-4-sulfonohydrazide]"
16,95.3,0.072,"Cc1ccc(-c2ccc(S(=O)(=O)NNC(=O)C(C)c3ccc(CC(C)C)cc3)cc2)cc1 (stereo not drawn) [Compound 11, N′-(2-(4-isobutylphenyl)propanoyl)-4′-methyl-[1, 1′-biphenyl]-4-sulfonohydrazide]"
11.7,99,0.141,"COc1ccc(-c2ccc(S(=O)(=O)NNC(=O)C(C)c3ccc(CC(C)C)cc3)cc2)cc1 (stereo not drawn) [Compound 12, N′-(2-(4-isobutylphenyl)propanoyl)-4′-methoxy-[1, 1′-biphenyl]-4sulfonohydrazide]"
2.28,,,"COc1cccc2c1C(=O)c1c(O)c3c(c(O)c1C2=O)C[C@@](O)(C(=O)CO)C[C@@H]3O[C@H]1C[C@H](N)[C@H](O)[C@H](C)O1 [Doxorubicin, reference compound]"
